Results on one substance are retold here after patent US20110275670A1, “New Compounds VII” (priority 2008, published 2011).

Assay [1] relates to JEG-3 cells. The following applies: Biol. Reprod. (2007) 76: 203-10; cited from earlier work.
Assay [2] concerns JEG-3 cells. The assay is described as follows: JEG-3 protocol: [3H]-thymidine incorporation (leptin assay in non-recombinant system). It counts as cell-based. The note with it: FIG. 4. The procedure: In JEG-3 cells (choriocarcinoma cell line) leptin is able to stimulate proliferation up to 3 fold (Biol. Reprod. (2007) 76: 203-10). […] The radioactivity incorporated by the cells is an index of their proliferative activity and is measured in counts per minute (CPM) with a liquid scintillation beta counter.
This finding can be applied to test whether a compound is able to either reproduce the effect of leptin on cell proliferation (leptin receptor agonist mimetic) (i.e., a given compound will cause an increase in incorporated [^3H]-Thymidine by the cells) or to inhibit the effect of leptin (antagonistic effect) by preventing the leptin-mediated increase in [^3H]-thymidine incorporation.
This approach has the advantage of using a non-recombinant system and has reasonable reproducibility and robustness.
(Dividing cells build labelled thymidine or BrdU into new DNA.)

For the substance “Leptin: a hormone synthesized in fat cells that is believed to act in the hypothesis to reduce food intake and body weight”, in the assay with JEG-3 cells [1], the stimulation of proliferation entry is on record as “up to 3 fold”. Also, in the assay with JEG-3 cells [2] (JEG-3 cells (choriocarcinoma cell line), read-out: EC50, concentration-dependent increase in [3H]-thymidine incorporation), the EC50 came to 2.1 nM. In the assay with JEG-3 cells [2] (JEG-3 cells), the “concentration of maximal effect on [3H]-thymidine incorporation” value stood at 100 nM.
